The nature of the first test: Antibacterial activity of TMP-susceptible Dihydrofolate reductase against […] ATCC 49619.
With `Nc1ncc(CN2CCc3c([nH]c4ccccc34)C2)c(N)n1` [5-(1,3,4,9-Tetrahydro-beta-carbolin-2-ylmethyl)-pyrimidine-2,4-diamine], the half-maximal inhibitory concentration (IC50) amounted to 4 nM.

Take `CC1c2ccc3c4ccccc4n(C)c3c2CCN1Cc1cnc(N)nc1N` (stereo unspecified) [5-(4,11-Dimethyl-1,2,4,11-tetrahydro-pyrido[4,3-a]carbazol-3-ylmethyl)-pyrimidine-2,4-diamine]: half-maximal inhibition (IC50) was put at 4 nM.

Compound `CC1c2cc(Cc3ccccc3)c(-c3ccccc3)n2CCN1Cc1cnc(N)nc1N` (stereo unspecified) [5-(7-Benzyl-1-methyl-6-phenyl-3,4-dihydro-1H-pyrrolo[1,2-a]pyrazin-2-ylmethyl)-pyrimidine-2,4-diamine] showed an IC50 of 450 nM.

`CSc1c2n(c3cc(Cl)ccc13)CCN(Cc1cnc(N)nc1N)C2` [5-(7-Chloro-10-methylsulfanyl-3,4-dihydro-1H-pyrazino[1,2-a]indol-2-ylmethyl)-pyrimidine-2,4-diamine] returned an IC50 of 2 nM.

Consider `COc1ccc2c(c1)CN(Cc1cnc(N)nc1N)CC2c1cccc([N+](=O)[O-])c1` (stereo unspecified) [5-[7-Methoxy-4-(3-nitro-phenyl)-3,4-dihydro-1H-isoquinolin-2-ylmethyl]-pyrimidine-2,4-diamine], for which it took 6 nM to reach half-maximal inhibition (IC50). This IC50 lies about 3-fold higher than the previous one.

The nature of a further test: Inhibitory activity of TMP-susceptible Dihydrofolate reductase against […] ATCC 49619.
On to `CC1c2ccc3c4ccccc4n(C)c3c2CCN1Cc1cnc(N)nc1N` (stereo unspecified) [5-(4,11-Dimethyl-1,2,4,11-tetrahydro-pyrido[4,3-a]carbazol-3-ylmethyl)-pyrimidine-2,4-diamine], for which the concentration for half-maximal inhibition (IC50) came out at 10 nM.

Values taken from BindingDB's records for doi:10.1021/jm020495y (F. Hoffmann-La Roche, 2003).
